RP-LC retention time data for 81 molecules are collected here from the METLIN SMRT retention time set (Domingo-Almenara et al. 2019).

The data set in a line: gradient 5% acetonitrile 3 min, to 50% in 2 min, to 85% in 15 min, held 3 min, 100 µL/min. The note with it: column: Zorbax Extend-C18 2.1 x 50 mm; eluents: water / acetonitrile, 0.1% formic acid. An outline of the steps:
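A Zorbax Extend-C18 column (2.1 × 50 mm, 1.8 μm) run at 100 μL/min with water and acetonitrile, both containing 0.1% formic acid, separated mixtures of ~100 pure standards. The HPLC was coupled to a quadrupole time-of-flight mass spectrometer operated in positive and negative ionization mode, with dead and dwell volumes of 40 μL and 900 μL. Each retention time was taken from a computationally picked adduct peak that was then manually inspected.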
In the case of `CC1CCN(S(=O)(=O)c2ccc(-c3nnc(C(=O)NCCc4ccccc4)o3)cc2)CC1`, the RP-LC retention time came to 1100 s.

Consider `COCC(=O)NC1CCC12CCN(C(=O)C1CC1)CC2` (stereo unspecified), for which the RP-LC retention time was 619 s.

In the case of `CCn1cc2c3c(cccc31)CN(C(=O)c1ccc(Br)o1)CC2`, the RP-LC retention time came out at 1050 s. For `Cc1cccc(N2CCN(C(=O)CN3CCN(Cc4ccccc4F)C3=O)CC2)c1`, the RP-LC retention time stood at 864 s.

In the case of `COc1ccc2[nH]cc(CCNC(=O)c3cn(-c4ccc(F)cc4)nn3)c2c1`, the RP-LC retention time stood at 868 s. With `O=C(NCc1ccsc1)NC(c1ccccc1)c1ccccc1`, the RP-LC retention time came out at 863 s.

Consider `COc1ccc2c(c1)c(CN1CCOCCNC(=O)CC1)cn2C(C)C`, for which the RP-LC retention time worked out at 642 s. Molecule `CCn1c(=O)c2cc(C(=O)NCCc3ccc(OC)c(OC)c3)nn2c2ccccc21` displayed an RP-LC retention time of 910 s.

On to `O=C1CSC(c2cccs2)N1c1nncs1` (stereo unspecified), for which the RP-LC retention time is 804 s. `Cc1noc2ncn(CC(=O)Nc3c(F)c(F)cc(F)c3F)c(=O)c12` displayed an RP-LC retention time of 759 s. In turn, `CCOc1ccc(S(=O)(=O)N2CCCC(C(=O)Nc3cc(C)ccc3OC)C2)cc1` (stereo unspecified) returned an RP-LC retention time of 1090 s. Regarding `O=C(NC1CCN(c2cc(-c3ccc(Cl)cc3)[nH]n2)C1)c1ccc2c(c1)OCO2` (stereo unspecified), the RP-LC retention time is 715 s. For the molecule `CCOc1ccc2nc(N3CCCC(C(=O)N4CCC(Cc5ccccc5)CC4)C3)sc2c1` (stereo unspecified), the RP-LC retention time turned out to be 1180 s. As to `CCN1c2ccccc2C(=O)NC12CCN(C(=O)Nc1ccc(OC)cc1)CC2`, the RP-LC retention time is 735 s. Consider `Cc1cc(C)cc(NS(=O)(=O)c2ccc(-c3c(C)noc3C)cc2)c1`, for which the RP-LC retention time was 989 s. In the case of `Cc1nc(-c2ccc3c(c2)n(CC(=O)N2CCn4c2nc2ccccc24)c(=O)n3C(C)C)no1`, the RP-LC retention time stood at 832 s. The molecule `CCNC(=O)Nc1ccc2c(c1)CN(S(=O)(=O)c1ccc3c(c1)CCC3)CCO2` had an RP-LC retention time of 894 s. Molecule `CN1C(=O)[C@H]2CN(Cc3ccccc3)C[C@H]2C1=O` came in with an RP-LC retention time of 546 s. With `O=c1c2cc(-c3ccc4c(c3)OCO4)nn2ccn1Cc1nc(-c2ccc(F)c(Cl)c2)no1` the figure was 805 s; with `O=C1NCCOCCCN(C(=O)Nc2ccccc2)[C@H]2CCCC[C@@H]12`, 672 s.

In turn, `O=C(Cc1csc2nc(-c3ccccc3)cn12)N1CCCc2ccccc21` returned an RP-LC retention time of 873 s. `COCCC(=O)N1CC(F)(F)C[C@H]1c1nc(C2CC2)no1` had an RP-LC retention time of 713 s.

`CCN1C(=O)c2cccnc2Sc2cc(NC(=O)Cc3c(F)cccc3Cl)ccc21` yielded an RP-LC retention time of 870 s. With `Cc1ccc(F)cc1S(=O)(=O)N(C)CC1CCOC1` (stereo unspecified) the figure was 836 s; with `O=c1ccc(-c2ccccc2)nn1CCc1nc(-c2cccc(Cl)c2)no1`, 1030 s.

In turn, `O=C(Cn1nc(N2CCOCC2)c2ccccc2c1=O)Nc1ccc(F)cc1` yielded an RP-LC retention time of 839 s.

`CCCc1nc(-c2c(C)cc(C)nc2NC(=O)c2cccc(Cl)c2)no1` yielded an RP-LC retention time of 986 s.

On to `Cc1ccc(C)c(S(=O)(=O)N2c3ccccc3CC2c2nc(C(C)C)no2)c1` (stereo unspecified), for which the RP-LC retention time turned out to be 1230 s.

Take `CCC(C)NC(=O)C1CCN(Cc2cc3ccccc3n2Cc2ccccc2Cl)CC1` (stereo unspecified): the RP-LC retention time is 784 s. In turn, `CCCN1CC(Oc2ccc(-c3noc(C4CC4)n3)cc2)C1` had an RP-LC retention time of 653 s. Turning to `Cc1ccc(C(=O)Nc2ccc3c(c2)Sc2ncccc2C(=O)N3C)cc1C`, the RP-LC retention time worked out at 876 s. As for `CCc1nc2cc(CNC(=O)Cc3ccc(Cl)cc3)ccc2n1C`, the figure is 641 s; as for `Cn1c(C(=O)NCc2ccccc2Cl)cc2sc(Cl)cc21`, 1260 s; as for `COc1ccc(NC(=O)Cn2nc(C(=O)N3CCCC3)c3ccccc32)cc1`, 800 s.

For `COc1ccc(NC(=O)NCC23CCC=C2N(CC2CC2)C(=O)CC3)cc1` (stereo unspecified), the RP-LC retention time was found to be 813 s. Turning to `C=CCNC(=O)CN1C(=O)C2CCCCN2c2ccc(C(=O)N3CCCC3)cc21` (stereo unspecified), the RP-LC retention time was 838 s. As for `CCCn1c(=O)sc2cc(S(=O)(=O)N3CCC(C(=O)N(CC)CC)CC3)ccc21`, the figure is 881 s.

For `COc1cc(OC)cc(-c2noc(-c3nnn(Cc4nc(-c5cccc(C)c5)oc4C)c3C)n2)c1`, the RP-LC retention time was determined as 1280 s.

With `O=C(Cn1nc2ccc(C(=O)NCc3ccccc3)cn2c1=O)NC1CCCC1`, the RP-LC retention time was determined as 702 s. As for `CCNS(=O)(=O)c1cc(-c2nc(C)cs2)n(C)c1C`, the RP-LC retention time is 792 s. In the case of `CC(=O)c1ccc(S(=O)(=O)N2CCC[C@@H]2C(=O)NCc2csc(C)n2)cc1`, the RP-LC retention time turned out to be 677 s. With `COCc1nc(CCNC(=O)NC2CCCCC2)no1` the figure was 691 s; with `Cc1cc(=O)c(OCc2ccccc2F)cn1CC(=O)NCc1ccco1`, 593 s. With `CCc1cc(=O)n(CC(=O)Nc2ccc(F)cc2F)c(N2CCOCC2)n1`, the RP-LC retention time amounted to 743 s.

`CCn1nc(C)n2cc(S(=O)(=O)NCc3ccc(C)o3)cc2c1=O` yielded an RP-LC retention time of 815 s. As for `COc1ccc(OC)c(S(=O)(=O)N2CCCC(C(=O)NCc3ccccn3)C2)c1` (stereo unspecified), the figure is 615 s. In the case of `O=C1NCCCn2cc(S(=O)(=O)Nc3ccc(Cl)cc3)cc21`, the RP-LC retention time was 682 s. `CCN1CCN(c2nccc(-c3cnc4nc(-c5cccnc5)nn4c3C)n2)CC1`: the RP-LC retention time turned out to be 574 s. For `CN(C)c1ccc(C(=O)N2CCCC2c2nc(-c3ccc(F)cc3)no2)cc1` (stereo unspecified), the RP-LC retention time was determined as 1020 s. Turning to `CC1=C(c2ccc(C)c(C)c2)S(=O)(=O)N=C1N1CCCN(C(=O)NC(C)C)CC1`, the RP-LC retention time was determined as 787 s. Take `CCS(=O)(=O)N1CCC(Cc2ccc(CN3CCOCC3)cc2)CC1`: the RP-LC retention time was found to be 622 s.

`COc1ccc(OC)c(CCN2CC(=O)N(c3ccc(C)c(Cl)c3)[C@@H]3CS(=O)(=O)C[C@@H]32)c1` yielded an RP-LC retention time of 921 s. As for `CCNc1cc(N2CCC(CCC(=O)NCc3ccc(F)cc3Cl)CC2)ncn1`, the RP-LC retention time is 680 s. The molecule `O=C(Cc1nnc2cc(-c3nc(C4CC4)no3)ccn12)NC1CCCCCC1` registered an RP-LC retention time of 741 s. The molecule `COc1ccc(Cl)cc1NC(=O)NCC1(CO)CC1` returned an RP-LC retention time of 684 s. With `NC(=O)c1cc(-c2ccc(F)cc2)n[nH]1` the figure was 645 s; with `Cc1sc2ccn(C)c(=O)c2c1C(=O)NCc1ccc(N2CCCCC2)cc1`, 580 s; with `Cc1noc([C@@H]2CN(Cc3cc(F)ccc3F)C[C@H]2CO)n1`, 576 s. Molecule `Cc1cnc(C2CNC2)n1Cc1ccccc1` showed an RP-LC retention time of 589 s. For the molecule `CCOC(=O)c1[nH]c(C)c(CCC(=O)N2CCC(C(=O)NCC3CCCO3)CC2)c1C` (stereo unspecified), the RP-LC retention time came to 670 s. For `COc1ccc(CCN2CC(=O)N(c3cccc(C)c3)[C@@H]3CS(=O)(=O)C[C@@H]32)cc1`, the RP-LC retention time is 830 s. `Cc1ccccc1C(=O)N1CCC2(CC1)NC(=O)c1cc(F)ccc1N2C`: the RP-LC retention time was found to be 749 s. With `Cc1cnc(C(=O)N2CCCCCCN(C)C(=O)[C@@H]3CCC[C@@H]32)cn1` the figure was 716 s.

On to `O=C(NCc1ccc(F)cc1)C1CC(=O)N(c2n[nH]c3cccc(F)c23)C1` (stereo unspecified), for which the RP-LC retention time stood at 707 s.

`CCOC(=O)c1cnc2c(-c3cccc(Cl)c3)c(COC)nn2c1N`: the RP-LC retention time is 1150 s. In turn, `CCCN(CC1CCOC1)C(=O)Nc1ccccc1C(F)(F)F` (stereo unspecified) registered an RP-LC retention time of 871 s.

Consider `CCOc1ccc(-c2noc(Cc3nc(-c4ccc(C)cc4)cs3)n2)cc1`, for which the RP-LC retention time was 1320 s. On to `COc1ccc(NC(=O)C2CCN(c3cnc4nc(C)c(C)nc4c3)CC2)cc1Cl`, for which the RP-LC retention time turned out to be 756 s.

The molecule `CCn1cc(S(=O)(=O)N2CC(Oc3ccc(-c4nc(C)no4)cc3)C2)cn1` came in with an RP-LC retention time of 844 s.

`CSc1cccc(NC(=O)NCCNc2nc(C)cc(N(C)C)n2)c1` showed an RP-LC retention time of 583 s.

`COCCCN1C(=O)CSc2c(c3ccccc3n2C)C1C(=O)NCc1ccc(F)cc1` (stereo unspecified) came in with an RP-LC retention time of 893 s. The molecule `O=C1N(c2ccccc2)CC12CCN(S(=O)(=O)Cc1ccccc1)CC2` registered an RP-LC retention time of 654 s.

As for `O=C1CN=C(c2ccc[nH]2)c2cc(Cl)ccc2N1`, the RP-LC retention time was 650 s.

With `Cc1cc(N2CCN(S(=O)(=O)c3ccccc3F)CC2)nc(NC2CCCCC2)n1`, the RP-LC retention time amounted to 796 s. Regarding `Cc1cccc(NC(=O)c2ccc3nn(CC(=O)Nc4ccc(C)c(F)c4)c(=O)n3c2)c1`, the RP-LC retention time was found to be 810 s. As for `CCOc1ccccc1N(C)C(=O)Cc1c(C(=O)O)c(C)cn1C`, the figure is 773 s; as for `Cc1ccccc1Cn1cc(-c2ccncc2)cc1C(=O)NCc1cccs1`, 741 s; as for `c1ccc(-c2nc(-c3ccc4c(c3)nnn4CCN3CCCCC3)no2)nc1`, 602 s. In turn, `c1ccc(CC2CCN(Cc3nc(-c4ccc(N5CCCCC5)nc4)no3)CC2)cc1` returned an RP-LC retention time of 802 s. `CC(=O)N1CCc2cc(N3CC(C(=O)Nc4cc(F)ccc4F)CC3=O)ccc21` (stereo unspecified) displayed an RP-LC retention time of 712 s. As for `CN1CCC2(CCN3CCc4c(oc5ccccc45)C3C2)N(C)C1=O` (stereo unspecified), the RP-LC retention time stood at 615 s.
